Measurements taken from paper doi:10.1101/2025.11.20.689572v1 (biorxiv, 2025).
Like-named read-outs stand apart in the source and are kept apart here.

Experiments:
HRH3 = HRH3 (Homo sapiens, UniProt Q9Y5N1); assay: cell-based; set-up: species or system HTLA; PRESTO-Tango beta-arrestin2 recruitment, luciferase luminescence, concentration-response; conditions: Assay=Tango; agonist mode
M3 = biological target: T1, M3 (Homo sapiens, UniProt P20309); assay: TRUPATH BRET2 G protein dissociation, HEK293; format: cell-based; conditions: HBSS, […] HEPES pH […] °C; agonist mode
T1 construct: gene CHRM3; full-length receptor; HEK293 with TRUPATH sensors (function)
T1 sequence (P20309 whole entry): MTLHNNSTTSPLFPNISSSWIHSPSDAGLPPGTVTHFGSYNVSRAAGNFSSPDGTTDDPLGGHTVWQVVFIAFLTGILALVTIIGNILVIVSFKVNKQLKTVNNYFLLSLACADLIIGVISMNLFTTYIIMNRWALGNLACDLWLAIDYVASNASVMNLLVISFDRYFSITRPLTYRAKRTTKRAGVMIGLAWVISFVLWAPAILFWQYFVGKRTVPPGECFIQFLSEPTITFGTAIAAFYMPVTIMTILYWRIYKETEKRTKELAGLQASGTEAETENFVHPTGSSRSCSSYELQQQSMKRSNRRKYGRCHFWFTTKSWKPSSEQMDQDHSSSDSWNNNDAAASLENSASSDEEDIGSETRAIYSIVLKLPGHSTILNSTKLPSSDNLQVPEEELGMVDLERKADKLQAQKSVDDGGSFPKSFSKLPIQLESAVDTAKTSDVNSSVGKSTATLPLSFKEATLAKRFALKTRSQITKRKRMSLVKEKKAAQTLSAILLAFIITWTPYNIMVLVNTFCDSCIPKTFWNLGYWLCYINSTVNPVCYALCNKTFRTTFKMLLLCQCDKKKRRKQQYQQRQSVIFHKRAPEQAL

HRH4 = HRH4 (Homo sapiens, UniProt Q9H3N8); assay: cell-based; set-up: PRESTO-Tango beta-arrestin2 recruitment, luciferase luminescence, concentration-response; conditions: HTLA, Assay=Tango, agonist mode, % of control agonist
HRH4, sequence (Q9H3N8 whole entry): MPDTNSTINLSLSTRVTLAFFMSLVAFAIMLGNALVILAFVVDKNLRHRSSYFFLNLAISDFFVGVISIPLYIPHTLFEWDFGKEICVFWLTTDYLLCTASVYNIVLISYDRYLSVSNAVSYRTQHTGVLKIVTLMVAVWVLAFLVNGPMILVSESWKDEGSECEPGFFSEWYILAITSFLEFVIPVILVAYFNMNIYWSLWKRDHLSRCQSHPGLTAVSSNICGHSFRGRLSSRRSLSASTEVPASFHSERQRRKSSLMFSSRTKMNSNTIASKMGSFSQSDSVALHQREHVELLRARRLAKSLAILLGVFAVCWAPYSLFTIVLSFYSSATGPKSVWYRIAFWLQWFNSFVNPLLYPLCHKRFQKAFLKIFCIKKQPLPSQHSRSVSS
Description: (§1) Off-target agonism across the human GPCRome was profiled using PRESTO-Tango, following established protocols with minor adaptations [10]–[12]. […] After ~6 h recovery, cells were transfected with 20 ng plasmid DNA per well and incubated overnight. The next day, 10 µL of test compound (prepared in DMEM + 1% dFBS) was added, and plates were incubated overnight. Media and compounds were removed, and 20 µL per well of Bright-Glo luciferase reagent diluted in assay buffer (Hank’s Balanced Salt Solution (HBSS), 20 mM HEPES, pH 7.4) was added. After 20 min at room temperature (dark), luminescence was recorded. Each plate included the dopamine D2 receptor (DRD2) stimulated with 100 nM quinpirole as a positive control. For the GPCRome screen, each receptor was tested in quadruplicate at 0 and 10 µM compound (final). Responses were expressed as fold change relative to the basal (0 µM) condition. Follow-up concentration–response assays were performed under identical conditions except that serial dilutions of compounds (maximum ~30 µM, final) were added to generate full concentration–response curves.

CHRM4 [1] = biological target: T2, CHRM4 (Homo sapiens, UniProt P08173); assay: cell-based; set-up: PRESTO-Tango beta-arrestin2 recruitment, luciferase luminescence, concentration-response; conditions: HTLA, Assay=Tango, agonist mode, % of control agonist
T2 sequence (P08173 1-479): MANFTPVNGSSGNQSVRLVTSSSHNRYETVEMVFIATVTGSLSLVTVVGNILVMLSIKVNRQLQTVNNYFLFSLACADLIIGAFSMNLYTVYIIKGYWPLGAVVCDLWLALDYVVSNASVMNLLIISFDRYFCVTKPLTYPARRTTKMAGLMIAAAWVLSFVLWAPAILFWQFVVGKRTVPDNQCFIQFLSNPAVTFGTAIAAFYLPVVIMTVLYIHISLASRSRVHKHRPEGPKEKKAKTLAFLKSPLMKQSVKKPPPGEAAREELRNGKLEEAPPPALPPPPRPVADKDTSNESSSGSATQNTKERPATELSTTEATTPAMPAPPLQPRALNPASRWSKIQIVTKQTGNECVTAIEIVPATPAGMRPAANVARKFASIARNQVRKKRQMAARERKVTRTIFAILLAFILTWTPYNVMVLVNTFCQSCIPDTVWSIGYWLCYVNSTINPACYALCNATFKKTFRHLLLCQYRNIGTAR
Description: as §1

CHRM2 = biological target: T3, CHRM2 (Homo sapiens, UniProt P08172); assay: cell-based; set-up: species or system HEK293; GloSensor-22F cAMP assay, Gi-mediated inhibition of isoproterenol-stimulated cAMP; antagonist mode against agonist EC80; conditions: Assay=Gi, agonist mode, % of control agonist
T3 sequence (P08172 1-466): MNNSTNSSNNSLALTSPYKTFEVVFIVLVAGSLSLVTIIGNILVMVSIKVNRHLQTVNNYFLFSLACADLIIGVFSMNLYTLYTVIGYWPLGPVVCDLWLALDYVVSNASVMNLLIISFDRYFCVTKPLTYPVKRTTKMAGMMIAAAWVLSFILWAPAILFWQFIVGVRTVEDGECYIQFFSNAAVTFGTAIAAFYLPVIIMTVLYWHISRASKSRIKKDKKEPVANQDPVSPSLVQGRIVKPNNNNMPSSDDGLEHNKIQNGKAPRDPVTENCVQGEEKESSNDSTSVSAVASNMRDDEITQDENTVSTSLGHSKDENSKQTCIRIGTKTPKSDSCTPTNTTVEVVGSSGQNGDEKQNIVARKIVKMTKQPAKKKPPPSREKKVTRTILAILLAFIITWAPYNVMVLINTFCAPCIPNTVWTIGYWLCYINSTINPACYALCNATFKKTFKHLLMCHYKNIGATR

CHRM4 [2] = biological target: T2, CHRM4; assay: cell-based; set-up: species or system HEK293; GloSensor-22F cAMP assay, Gi-mediated inhibition of isoproterenol-stimulated cAMP; antagonist mode against agonist EC80; conditions: Assay=Gi, agonist mode, % of control agonist
5-HT1F = biological target: T4, 5-HT1F (Homo sapiens, UniProt P30939); assay: competitive radioligand binding, HEK293 membranes
T4 construct: gene HTR1F; full-length receptor; HEK293 cell membranes
T4 sequence (P30939 whole entry): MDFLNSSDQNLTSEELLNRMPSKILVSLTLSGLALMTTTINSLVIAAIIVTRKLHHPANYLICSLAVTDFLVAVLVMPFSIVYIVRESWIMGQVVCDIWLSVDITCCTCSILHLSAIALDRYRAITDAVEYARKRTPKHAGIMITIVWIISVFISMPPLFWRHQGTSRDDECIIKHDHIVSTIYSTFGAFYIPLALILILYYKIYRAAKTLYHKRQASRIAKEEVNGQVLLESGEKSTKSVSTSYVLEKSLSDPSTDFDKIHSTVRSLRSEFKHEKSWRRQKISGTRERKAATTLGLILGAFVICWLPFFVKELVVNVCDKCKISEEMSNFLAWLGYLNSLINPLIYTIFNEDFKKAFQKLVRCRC
Source text: competitive radioligand binding, HEK293 membranes on 5-HT1F

α2A = biological target: T5, α2A (Homo sapiens, UniProt P08913); assay: competitive radioligand binding, HEK293 membranes
T5 construct: gene ADRA2A; full-length receptor; HEK293 cell membranes
T5 sequence (P08913 whole entry): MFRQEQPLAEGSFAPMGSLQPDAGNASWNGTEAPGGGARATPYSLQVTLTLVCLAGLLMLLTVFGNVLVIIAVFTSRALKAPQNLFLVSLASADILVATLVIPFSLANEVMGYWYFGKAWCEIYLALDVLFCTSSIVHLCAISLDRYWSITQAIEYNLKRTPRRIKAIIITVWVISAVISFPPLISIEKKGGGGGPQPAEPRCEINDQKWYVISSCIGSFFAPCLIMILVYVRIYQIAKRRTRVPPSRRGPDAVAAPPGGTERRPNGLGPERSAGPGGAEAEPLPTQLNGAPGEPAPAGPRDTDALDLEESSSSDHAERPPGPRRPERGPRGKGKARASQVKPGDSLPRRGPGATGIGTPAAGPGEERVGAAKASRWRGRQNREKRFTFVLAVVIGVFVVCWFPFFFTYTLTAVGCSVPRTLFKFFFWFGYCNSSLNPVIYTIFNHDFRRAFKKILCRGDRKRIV
Source text: competitive radioligand binding, HEK293 membranes on α2A

5-HT2C = biological target: T6, 5-HT2C (Homo sapiens, UniProt P28335); assay: competitive radioligand binding, HEK293 membranes
T6 construct: gene HTR2C; full-length receptor; HEK293 cell membranes
T6 sequence (P28335 33-458): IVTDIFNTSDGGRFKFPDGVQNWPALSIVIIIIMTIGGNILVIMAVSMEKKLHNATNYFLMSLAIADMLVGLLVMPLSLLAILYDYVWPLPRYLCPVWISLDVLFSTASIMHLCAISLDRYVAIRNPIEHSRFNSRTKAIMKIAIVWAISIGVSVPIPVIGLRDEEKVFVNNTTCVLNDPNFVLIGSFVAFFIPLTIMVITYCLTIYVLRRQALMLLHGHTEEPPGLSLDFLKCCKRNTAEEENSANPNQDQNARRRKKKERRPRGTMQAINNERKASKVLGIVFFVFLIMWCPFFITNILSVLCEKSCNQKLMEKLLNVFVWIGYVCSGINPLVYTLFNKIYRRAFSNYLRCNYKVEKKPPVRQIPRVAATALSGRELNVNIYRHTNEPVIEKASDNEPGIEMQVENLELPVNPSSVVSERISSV
Source text: competitive radioligand binding, HEK293 membranes on 5-HT2C

[3] = read-out: N-Desmethyl Xanomeline
[4] = HEK293, read-out: N-Desmethyl Xanomeline

HRH3, sequence (Q9Y5N1 whole entry): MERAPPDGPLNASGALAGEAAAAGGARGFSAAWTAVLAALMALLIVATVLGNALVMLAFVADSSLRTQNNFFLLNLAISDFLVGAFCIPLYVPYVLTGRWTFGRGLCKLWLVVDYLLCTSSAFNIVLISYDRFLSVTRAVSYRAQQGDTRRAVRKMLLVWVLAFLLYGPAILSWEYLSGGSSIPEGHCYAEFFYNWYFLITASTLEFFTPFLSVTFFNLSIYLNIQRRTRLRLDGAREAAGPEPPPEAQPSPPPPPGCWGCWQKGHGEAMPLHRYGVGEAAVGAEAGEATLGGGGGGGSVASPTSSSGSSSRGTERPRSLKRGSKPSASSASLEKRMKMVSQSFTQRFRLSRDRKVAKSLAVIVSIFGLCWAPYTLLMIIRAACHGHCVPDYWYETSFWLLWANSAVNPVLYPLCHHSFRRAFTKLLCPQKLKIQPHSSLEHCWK

SMILES | EC50 (HRH3) [nM] | EC50 (M3) | Emax (HRH4; [3]) [%] | Emax (CHRM4 [1]; [3]) [%] | Emax (CHRM2; [4]) [%] | Emax (CHRM4 [2]; [4]) [%] | Ki (5-HT1F) [nM] | Ki (α2A) [nM] | Ki (5-HT2C) [nM] | Emax (HRH4; read-out: Xanomeline) [%] | Emax (CHRM4 [1]; read-out: Xanomeline) [%] | Emax (CHRM2; HEK293, read-out: Xanomeline) [%] | Emax (CHRM4 [2]; HEK293, read-out: Xanomeline) [%]
CCCCCCOc1nsnc1C1=CCCNC1 [N-desmethylxanomeline] | 7580 | differential activation of M1-M5 muscarinic receptor transducers | 10.4 | 67.5 | 107 | 84.4 | 224 | 437 | 324 | – | – | – | –
CCCCCCOc1nsnc1C1=CCCN(C)C1 [Xanomeline] | 9440 | differential activation of M1-M5 muscarinic receptor transducers | – | – | – | – | 759 | 955 | 204 | 37.3 | 72.5 | 85.9 | 87.2
